Data reported in ChEMBL document CHEMBL5338735, “Designing Smaller, Synthetic, Functional Mimetics of Sulfated Glycosaminoglycans as Allosteric Modulators of Coagulation Factors” (J Med Chem, 2023).
Values belong to the compound of their own block, whether it stands above or below them.

Tests used:
Prothrombin [1] = molecular target: T1, Prothrombin (Homo sapiens, UniProt P00734); test: Inhibition of thrombin in human plasma measured after 10 mins by chromogenic substrate hydrolysis assay; type: cell-free
Prothrombin [2] = molecular target: T1, Prothrombin; test: Inhibition of thrombin in human plasma assessed as maximal efficacy measured after 10 mins by chromogenic substrate hydrolysis assay relative to control; type: cell-free
Coagulation factor XI [3] = molecular target: T2, Coagulation factor XI (Homo sapiens, UniProt P03951); test: Inhibition of human Factor XIa assessed as substrate hydrolysis measured by measuring residual activity after 10 mins by chromogenic substrate hydrolysis assay relative to control
T2 sequence (P03951 19-387 limits assumed): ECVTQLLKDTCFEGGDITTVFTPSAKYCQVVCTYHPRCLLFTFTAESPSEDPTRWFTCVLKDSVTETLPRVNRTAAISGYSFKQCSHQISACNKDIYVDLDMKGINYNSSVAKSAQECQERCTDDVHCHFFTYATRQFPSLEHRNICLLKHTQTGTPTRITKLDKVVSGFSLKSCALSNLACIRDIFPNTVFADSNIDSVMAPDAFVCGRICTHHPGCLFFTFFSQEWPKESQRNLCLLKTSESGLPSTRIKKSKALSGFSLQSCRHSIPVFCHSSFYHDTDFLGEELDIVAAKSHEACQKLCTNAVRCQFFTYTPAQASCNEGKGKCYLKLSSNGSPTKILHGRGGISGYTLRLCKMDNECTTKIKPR
T2 sequence (P03951 388-625 limits assumed): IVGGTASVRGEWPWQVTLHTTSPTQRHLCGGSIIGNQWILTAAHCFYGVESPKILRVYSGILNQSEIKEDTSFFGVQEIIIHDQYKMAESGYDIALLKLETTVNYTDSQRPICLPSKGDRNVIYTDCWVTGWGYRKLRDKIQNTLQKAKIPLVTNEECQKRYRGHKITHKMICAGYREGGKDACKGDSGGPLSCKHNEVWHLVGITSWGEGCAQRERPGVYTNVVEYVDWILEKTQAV

[4] = molecular target: Coagulation factor X (Homo sapiens) (UniProt P00742); test: Inhibition of human factor Xa assessed as fold change relative to basal value
Coagulation factor X (Homo sapiens), sequence (P00742 41-179 limits assumed): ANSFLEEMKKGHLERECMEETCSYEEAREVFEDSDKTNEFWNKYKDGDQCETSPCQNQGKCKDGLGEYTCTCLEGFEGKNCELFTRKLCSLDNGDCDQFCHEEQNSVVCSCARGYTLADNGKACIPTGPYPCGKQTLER
Coagulation factor X (Homo sapiens), sequence (P00742 235-488 limits assumed): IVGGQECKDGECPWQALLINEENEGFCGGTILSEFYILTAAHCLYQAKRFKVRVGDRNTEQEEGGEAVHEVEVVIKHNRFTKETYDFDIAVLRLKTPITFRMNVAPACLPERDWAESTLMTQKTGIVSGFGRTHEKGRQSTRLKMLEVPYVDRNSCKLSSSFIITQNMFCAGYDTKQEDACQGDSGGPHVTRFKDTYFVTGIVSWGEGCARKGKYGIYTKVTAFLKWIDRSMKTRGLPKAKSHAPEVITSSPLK

Coagulation factor XI [5] = molecular target: T2, Coagulation factor XI; test: Inhibition of human factor XIa
Coagulation factor XI [6] = molecular target: T2, Coagulation factor XI; test: Inhibition of human recombinant FXIa assessed as S-2366 hydrolysis

Compound: Cc1ccc(C(=O)Nc2ccc(CP(=O)(O)O)cc2CP(=O)(O)O)cc1NC(=O)c1cccc(NC(=O)Nc2cccc(C(=O)Nc3cc(C(=O)Nc4ccc(CP(=O)(O)O)cc4CP(=O)(O)O)ccc3C)c2)c1
Activity (Coagulation factor XI [3]): 68%

Compound: O=S(=O)(O)Oc1cc2c(c(OS(=O)(=O)O)c1)C[C@@H](OS(=O)(=O)O)[C@@H](c1ccc(OS(=O)(=O)O)c(OS(=O)(=O)O)c1)O2
fold change (FC) [4]: 10.8

Compound: O=S(=O)(O)Oc1cc2c(c(OS(=O)(=O)O)c1)C[C@H](OS(=O)(=O)O)[C@@H](c1ccc(OS(=O)(=O)O)c(OS(=O)(=O)O)c1)O2
fold change (FC) [4]: 20.8

Compound: COc1cc2oc(C)c(C(=O)OC(C)(C)C)c2cc1OCc1oc2cc(OC)c(OS(=O)(=O)O)cc2c1C(=O)OC(C)(C)C
IC50 (Coagulation factor XI [5]): 7300 nM

Compound: COc1cc2oc(C)c(C(=O)O)c2cc1OS(=O)(=O)O
IC50 (Coagulation factor XI [5]): > 2000 nM

Compound: COc1cc(CCCS(=O)(=O)O)ccc1O[C@H](Cc1cccc(OC)c1O)CS(=O)(=O)O
IC50 (Coagulation factor XI [5]): 150 nM

Next, values leading:

IC50 (Prothrombin [1]): 180 nM
Efficacy (Prothrombin [2]): 47%
Compound: O=c1oc2cc(OCCCCn3cc(COc4ccc(-c5oc(=O)c6c(Cl)cc(Cl)cc6c5-c5ccccc5)cc4)nn3)ccc2c(-c2ccccc2)c1-c1ccc(OS(=O)(=O)O)cc1

Activity (Coagulation factor XI [3]): > 90%
Compound: O=C(Nc1ccc(C(=O)Nc2ccc(C(=O)Nc3ccc(S(=O)(=O)O)c4cc(S(=O)(=O)O)cc(S(=O)(=O)O)c34)cc2)cc1)Nc1ccc(C(=O)Nc2ccc(C(=O)Nc3ccc(S(=O)(=O)O)c4cc(S(=O)(=O)O)cc(S(=O)(=O)O)c34)cc2)cc1

IC50 (Coagulation factor XI [6]): 280 nM
Compound: O=C(O[C@@H]1[C@H](OC(=O)c2cc(OS(=O)(=O)O)cc(OS(=O)(=O)O)c2)[C@@H](OC(=O)c2cc(OS(=O)(=O)O)cc(OS(=O)(=O)O)c2)[C@H](OC(=O)c2ccc(OS(=O)(=O)O)cc2OS(=O)(=O)O)[C@@H](OC(=O)c2cc(OS(=O)(=O)O)cc(OS(=O)(=O)O)c2)[C@H]1OC(=O)c1cc(OS(=O)(=O)O)cc(OS(=O)(=O)O)c1)c1cc(OS(=O)(=O)O)cc(OS(=O)(=O)O)c1
